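Following 48 hours of exposure in 96-well plates, responses at five concentrations were used to interpolate endpoints linearly. At the TGI there is no net growth.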

Common to all, as to test: NCI anticancer screen, dose series, 48 h
The subject of assay [1] is ACHN renal.
In assay [2] the test system is LOX IMVI melanoma.
The subject of assay [3] is SK-MEL-5 melanoma.
Assay [4] has as its system OVCAR-4 ovarian.
The test system of assay [5] is HL-60(TB) leukemia.
Assay [6] deals with OVCAR-3 ovarian.
In assay [7] the test system is OVCAR-8 ovarian.
For assay [8], the system named is SF-295 CNS.
Assay [9] concerns SW-620 colon.
Assay [10] has as its system UACC-257 melanoma.

Turning to `O=C(NCP(=O)(Oc1ccccc1)Oc1ccccc1)OCc1ccccc1`, the TGI in assay [1], in assay [2], in assay [3], in assay [4], in assay [5] and in assay [6] was more than 100 µM throughout. The TGI in [7], in [8], in [9] and in assay [10] was more than 100 µM each time.

Take `NCCCN1c2ccccc2Sc2ccc(Cl)cc21`: the TGI in assay [1] was more than 10 µM; in [2] it was 7.31 µM; in assay [3] it was more than 5.52 µM; in assay [4], more than 10 µM; in assay [5], more than 10 µM; in assay [6] it was more than 10 µM. Further, the TGI was more than 10 µM in assay [7], more than 10 µM in assay [8], more than 7 µM in [9] and more than 10 µM in assay [10].

On to `CCOS(C)(=O)=O`, for which the TGI in assay [1], in assay [2], in [3], in [4], in [5] and in [6] was more than 100 µM each time. The TGI in [7], in assay [8], in assay [9] and in assay [10] was more than 100 µM each time.

Turning to `On1c(-c2ccccc2)c(-c2ccccc2N2CCCC2)c2ccccc21`, the TGI in assay [1], in assay [2], in assay [3], in assay [4], in [5] and in [6] was more than 100 µM in each case. Further, the TGI in assay [7], in assay [8], in [9] and in assay [10] was more than 100 µM throughout.

For `C/C(C[n+]1ccccc1)=N\N=C(N)N`, the TGI in assay [1], in assay [2], in assay [3], in assay [4], in [5] and in [6] was more than 100 µM each time. In addition, the TGI in assay [7], in assay [8], in [9] and in assay [10] was more than 100 µM in each case.

As for `CCCCCCCCCCCC[S+](C)C`, the TGI is 19.4 µM in assay [1]; 15.9 µM in [2]; 9.25 µM in assay [3]; 18.8 µM in assay [4]; 14.1 µM in assay [5]; 18.6 µM in assay [6]. Besides, the TGI in assay [7] is 17.9 µM; in assay [8], 16.6 µM; in [9] it was 30.2 µM; in assay [10], 17.4 µM.

For `O=C(CCn1ccnc1[N+](=O)[O-])NCCCn1ccnc1[N+](=O)[O-]`, the TGI in assay [1], in assay [2], in assay [3], in assay [4], in [5] and in assay [6] was more than 100 µM throughout. The TGI in assay [7], in assay [8], in assay [9] and in [10] was more than 100 µM throughout.

As for `Oc1cc(Cl)cc2cccnc12`, the TGI was more than 91.6 µM in [1]; 28 µM in assay [2]; 13.4 µM in assay [3]; more than 100 µM in assay [4]; 0.727 µM in [5]; 3.18 µM in assay [6]. The TGI in assay [7] was more than 100 µM; in assay [8] it was 15.9 µM; in assay [9], 19.7 µM; in assay [10], more than 29.9 µM.

On to `Cc1nc(C)c(C(=O)NNC(=O)C[N+](C)(C)C)cc1C(=O)NNC(=O)C[N+](C)(C)C`, for which the TGI in assay [1], in assay [2], in assay [3], in assay [4], in [5] and in [6] was more than 100 µM throughout. Moreover, the TGI in assay [7], in assay [8], in [9] and in [10] was more than 100 µM each time.

Turning to `CSc1cc(-c2cccs2)sc1-c1cc(SC)c(-c2sc(-c3sc(-c4cccs4)cc3SC)cc2SC)s1`, the TGI in assay [1], in assay [2], in assay [3], in assay [4], in assay [5] and in [6] was more than 100 µM each time. In addition, the TGI in [7], in [8], in assay [9] and in [10] was more than 100 µM in each case.

Regarding `S=C1NC2=C(CSC/C2=C\c2cccc(Br)c2)C(c2cccc(Br)c2)N1` (stereo not given), the TGI in [1], in [2], in [3], in assay [4], in [5] and in [6] was more than 100 µM throughout. Besides, the TGI in assay [7], in assay [8], in assay [9] and in [10] was more than 100 µM each time.

As to `COc1ccc(C2OC(c3ccncc3)=NN2C)cc1F` (stereo not given), the TGI in assay [1], in assay [2], in [3], in assay [4], in [5] and in assay [6] was more than 100 µM each time. For the same molecule, the TGI in assay [7], in [8], in [9] and in [10] was more than 100 µM throughout.

Consider `Cc1cccc(C)c1NC(=O)C(Cc1c[nH]c2ccccc12)NC(=O)OCc1ccccc1` (stereo not given), for which the TGI came to 53.2 µM in [1]; 53.8 µM in assay [2]; 28.9 µM in assay [3]; 37.1 µM in assay [4]; 44.3 µM in assay [5]; 69.3 µM in assay [6]. Moreover, the TGI is 89.2 µM in assay [7], 38.9 µM in assay [8], more than 100 µM in assay [9] and 34 µM in [10].

For `O=C1NC(N2CCOCC2)=N/C1=C\c1ccco1`, the TGI in assay [1], in assay [2], in assay [3], in [4], in [5] and in [6] was more than 100 µM throughout. In addition, the TGI in assay [7], in [8], in [9] and in [10] was more than 100 µM each time.

For the molecule `C/C(=N\N=C1/C(=O)OC(c2ccccc2)=C1C(=O)c1ccccc1)c1ccc([N+](=O)[O-])cc1`, the TGI in assay [1], in assay [2], in [3], in assay [4], in [5] and in [6] was more than 100 µM in each case. For the same molecule, the TGI in assay [7], in [8], in assay [9] and in assay [10] was more than 100 µM each time.

For `O=C(O)[C@H]1CCCN1CP(=O)(O)CN1CCC[C@@H]1C(=O)O`, the TGI in [1], in [2], in assay [3], in assay [4], in [5] and in assay [6] was more than 100 µM throughout. Also, the TGI in assay [7], in assay [8], in assay [9] and in [10] was more than 100 µM each time.

On to `Cc1nn(-c2ccccc2)c2c1C(c1cc3ccccc3nc1Cl)NC(=O)N2` (stereo not given), for which the TGI was 35.8 µM in [1]; 44.8 µM in [2]; 31.3 µM in assay [3]; more than 100 µM in [4]; 52.6 µM in [5]; more than 100 µM in assay [6]. Further, the TGI in [7] came to 47.4 µM; in assay [8] it was 55.8 µM; in assay [9] it was 36.7 µM; in assay [10] it was 85.9 µM.

Take `N#CC(C#N)=C1SC(=Nc2ccccc2)C(=Nc2ccccc2)N1c1ccccc1`: the TGI in assay [1] is 71.3 µM; in assay [2], 24.4 µM; in assay [3], 28.7 µM; in assay [4], 34.8 µM; in assay [5] it was more than 24.6 µM; in assay [6], 6.04 µM. For the same molecule, the TGI in [7] was 65.9 µM; in assay [8] it was more than 76.6 µM; in [9] it was 11.5 µM; in assay [10], 30 µM.

With `Cc1nc(C)c(N2CCN([N+](=O)[O-])CC2)c(=O)[nH]1`, the TGI in assay [1], in assay [2], in assay [3], in assay [4], in [5] and in [6] was more than 100 µM each time. Besides, the TGI in assay [7], in assay [8], in assay [9] and in assay [10] was more than 100 µM in each case.

Take `COc1cc2c(cc1OC)C1C3CCCCC3CCN1CC2` (stereo not given): the TGI in assay [1], in assay [2], in assay [3], in assay [4], in assay [5] and in assay [6] was more than 100 µM each time. The TGI in assay [7], in assay [8], in [9] and in assay [10] was more than 100 µM throughout.

In the case of `Cc1ccc(S(=O)(=O)n2c3c(c4ccccc42)CCN2C[C@H]([C@H](C)Br)CC[C@@H]32)cc1`, the TGI in assay [1], in [2], in assay [3], in assay [4], in [5] and in assay [6] was more than 100 µM each time. In addition, the TGI in assay [7], in assay [8], in [9] and in assay [10] was more than 100 µM in each case.

For `Clc1ccc(-c2nnc3sc4nc5ccccc5c-4nn23)c(Cl)c1`, the TGI in assay [1], in assay [2], in [3], in assay [4], in assay [5] and in assay [6] was more than 100 µM each time. Also, the TGI in assay [7], in assay [8], in assay [9] and in assay [10] was more than 100 µM each time.

Regarding `Cc1cc(/N=C/c2ccc(N(C)C)cc2)n(-c2ccccc2)n1`, the TGI is more than 100 µM in assay [1]; more than 100 µM in assay [2]; more than 100 µM in [3]; more than 100 µM in [4]; more than 100 µM in assay [5]; 82.4 µM in [6]. Further, the TGI in [7], in [8], in assay [9] and in assay [10] was more than 100 µM throughout.

Consider `CC(C)SC(=S)Sc1c(Cl)c(Cl)nc(Cl)c1Cl`, for which the TGI in [1] worked out at 18.6 µM; in [2], 6.68 µM; in assay [3] it was 29.1 µM; in assay [4], 28.4 µM; in [5] it was 5.61 µM; in assay [6], 3.52 µM. For the same molecule, the TGI in assay [7] was determined as 10.5 µM; in assay [8], 30.5 µM; in [9], 15.9 µM; in assay [10] it was 9.57 µM.

Regarding `O=C(O)CN1CCN2CCCCCN(CC1)CCN(CC(=O)O)CC2`, the TGI in [1] was more than 100 µM; in [2] it was more than 100 µM; in assay [3], more than 100 µM; in assay [4], more than 100 µM; in assay [5] it was 33.4 µM; in assay [6] it was more than 100 µM. For the same molecule, the TGI in assay [7], in assay [8], in assay [9] and in assay [10] was more than 100 µM each time.

For the molecule `OC[C@H]1O[C@@H]2O[C@@](COCc3ccccc3)([C@H](OCc3ccccc3)[C@H]2O)[C@@H]1OCc1ccccc1`, the TGI in [1] was found to be 31.1 µM; in assay [2], 32.2 µM; in assay [3] it was 29.2 µM; in assay [4], 10.8 µM; in assay [5] it was 38.2 µM; in [6], 27.7 µM. For the same molecule, the TGI in [7] was 29.1 µM; in [8], 28.8 µM; in assay [9], 38.6 µM; in assay [10] it was 32.2 µM.

The record behind these values is PubChem BioAssay (NCI).
